Earlier results in US9034383B2 (NanoRx, Inc., priority 2010, dated 2015).

Legend:
[1] = system: rats; conditions: exercise-trained rats run to exhaustion on a treadmill; Kim et al. 2003
[2] = system: angiogenesis; conditions: Thippeswamy 2008

In the case of CCCCCCCCCCCCCCCCCCCCCCCCCCCCO [pure octacosanol, octacosanol], the ergogenic properties [1] is listed as “sparing of muscle glycogen stores and increasing the oxidative capacity in the muscle”, the “neurologic and pulmonary function” value (amyotrophic lateral sclerosis patients, double-blind placebo-controlled crossover, Fallat 1986) is listed as “did not show any benefits” and the “neutral sterol and bile acid concentration in feces” value (humans, Jahreis 2008) is listed as “decreases”. The angiogenesis [2] was “inhibits angiogenesis”.
